Consider seven compounds from ChEMBL document CHEMBL1137948, “The design and synthesis of sulfonamides as caspase-1 inhibitors” (Bioorg Med Chem Lett, 2004).

Target in one experiment: not listed separately
Put plainly: (§1) Inhibitory activity against caspase-1.
In the case of `O=C(O)CC(NC(=O)OCc1ccccc1)C(=O)CNS(=O)(=O)Cc1ccccc1` (centres undefined), the Ki (usually the dissociation constant of the complex between target and ligand, obtained from inhibition or displacement) was 18 µM.

For a further experiment, the target named is T1, Caspase-1 (Homo sapiens, UniProt P29466).
T1 sequence (P29466 whole entry): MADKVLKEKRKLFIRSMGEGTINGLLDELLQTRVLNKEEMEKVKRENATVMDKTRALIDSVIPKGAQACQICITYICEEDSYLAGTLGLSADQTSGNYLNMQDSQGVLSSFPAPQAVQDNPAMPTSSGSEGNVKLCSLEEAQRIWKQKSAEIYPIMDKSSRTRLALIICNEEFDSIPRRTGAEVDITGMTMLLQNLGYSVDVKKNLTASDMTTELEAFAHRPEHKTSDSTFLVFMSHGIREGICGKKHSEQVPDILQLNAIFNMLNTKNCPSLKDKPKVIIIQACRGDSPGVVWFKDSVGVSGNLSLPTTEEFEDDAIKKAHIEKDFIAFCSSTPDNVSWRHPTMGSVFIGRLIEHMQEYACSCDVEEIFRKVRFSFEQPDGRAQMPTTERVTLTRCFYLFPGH
The description is as §1.
As for `CC(=O)N[C@@H](Cc1ccc(O)cc1)C(=O)N[C@@H](CCC(=O)O)C(=O)N[C@@H](C)C(=O)NC(CC(=O)O)C(=O)CNS(=O)(=O)CCc1ccccc1` (some centres undefined), it took 0.0034 µM to reach half-maximal inhibition (IC50) and affinity was put at a Ki of 0.004 µM.

As for `C[C@H](NC(=O)[C@H](CCC(=O)O)NC(=O)OCc1ccccc1)C(=O)NC(CC(=O)O)C(=O)CNS(=O)(=O)CCc1ccccc1` (some centres undefined), the IC50 (usually the concentration needed to halve the response being measured) worked out at 0.0253 µM and the affinity, expressed as Ki, was 0.0239 µM.

Consider `CC(C)[C@H](NC(=O)OCc1ccccc1)C(=O)N[C@@H](C)C(=O)NC(CC(=O)O)C(=O)CCCCCc1ccccc1` (some centres undefined), for which the IC50 came out at 0.976 µM and the affinity corresponds to a Ki of 0.134 µM.

As for `O=C(O)CC(NC(=O)OCc1ccccc1)C(=O)CNS(=O)(=O)Cc1ccccc1` (centres undefined), the IC50 came to 168 µM.

For `CC(=O)N[C@@H](Cc1ccc(O)cc1)C(=O)N[C@H](C(=O)N[C@@H](C)C(=O)NC(CC(=O)O)C(=O)CCCCCc1ccccc1)C(C)C` (some centres undefined), the IC50 turned out to be 0.071 µM and the affinity, expressed as Ki, was 0.014 µM.

For the compound `CC(C)[C@H](NC(=O)OCc1ccccc1)C(=O)N[C@@H](C)C(=O)NC(CC(=O)O)C(=O)CNS(=O)(=O)CCc1ccccc1` (some centres undefined), the half-maximal inhibitory concentration (IC50) was found to be 0.072 µM and the inhibitory constant (Ki) was determined as 0.004 µM.

As to `O=C(O)CC(NC(=O)OCc1ccccc1)C(=O)CCCCCc1ccccc1` (centres undefined), the concentration for half-maximal inhibition (IC50) turned out to be 1030 µM and the affinity corresponds to a Ki of 119 µM.
